The target in data set [1] is human Akt1 kinase (Homo sapiens, UniProt P31749). Nature of the data set: In vitro Akt1 assay (IMAP fluorescence polarization, phosphorylation of TAMRA-peptide). Type of data set: biochemical. Conditions: 40 µM ATP. The method, then: The inhibition of Akt1 by the compounds described in the present invention were determined measuring the phosphorylation of a fluorescently-labeled peptide (TAMRA-peptide) by human Akt1 kinase by fluorescent polarization using a commercially available IMAP Screening Express Assay Kit (Molecular Devices).
Akt1 kinase assays were performed in low protein binding 384-well plates (Corning). Test compounds were diluted in 100% DMSO to 5 mM stock concentration and then further dilutions were made in H2O or 100% DMSO to desirable concentrations.
Each reaction consisted of 5 nM enzyme: Akt1 kinase, 400 nM TAMRA-peptide (5-TAMRA-GRTGRRNSI-COOH; Genecust), 40 µM ATP and kinase buffer: 20 mM MES pH6, 1 mM DTT, 10 mM MgCl2, 2 mM MnCl2, 0.01 V/V% TritonX (all reagents from Sigma-Aldrich).
For each reaction, 4 or 6 µl containing TAMRA-peptide, ATP and kinase buffer were combined with 2 µl diluted compound in H2O or 0.02 µl compound in 100% DMSO. The kinase reaction was started by the addition of 2 µl diluted enzyme. The reaction was allowed to run for 1 hour at room temperature. The reaction was stopped by adding 15 µl IMAP beads (1:400 beads in progressive (75% buffer A, 25% buffer B) 1x buffer). After an additional hour, fluorescent polarization (Ex: 550-10 nm, Em: 590-10 nm, Dich: 561 nm) was measured using an Analyst GT (Molecular Devices).
For orientation: Polarisation of emitted light reports the rotation of a fluorescent probe.

Data set [2] deals with H1 N1 influenza virus strain A/WSN/33. Nature of the data set: microbe, parasite or virus in culture. Type of data set: cell-based. Conditions: 36 h, read-out: Influenza replication IC50.
Data set [3] is described as follows: physchem. Type of data set: physicochemical. Conditions: kinetic from dmso stock. How it is done:
Samples were diluted in DMSO (control), phosphate buffer pH = 7.4 and pH = 2.0, from 5mM stock solutions (solved in DMSO), with a 120 µM final concentration. The samples were incubated for 24 hours at room temperature followed by 30 minutes centrifugation at 3700 rpm. 40 µl of the supernatants were injected into HPLC (Waters 2795 Alliance HPLC equipped with Waters 996 PDA Detector (HPLC column: Waters XBridge, RP C18, 3.5 µm, 4.6 mm x 50 mm; gradient MeCN/H2O, containing 0.1% HCOOH: 5% MeCN (0.5 min), 5% to 95% MeCN (5 min), 95% MeCN (0.5 min); flow rate: 2.0 ml/min)) and the AUC values (measured on sample specific wavelength) of the buffered samples were divided by the AUC values (same wavelength as buffered samples') of the DMSO control samples. Table 3: Solubility in water for several compounds according to general formula (I)

Data set [4] concerns the target T1, human Clk1 kinase (Homo sapiens, UniProt P49759).
T1 construct: Each reaction consisted of 4 nM enzyme: Clk1 kinase domain
Nature of the data set: In vitro Clk1 assay (IMAP fluorescence polarization). Type of data set: biochemical. As to conditions: 0.45 µM ATP. The method, then:
The activity of the compounds described in the present invention can be determined by the following kinase assay, which measures the phosphorylation of a fluorescently-labeled peptide by human Clk1 kinase by fluorescent polarization using a commercially available IMAP Screening Express Assay Kit (Molecular Devices).
Clk1 kinase assays were performed in low protein binding 384-well plates (Corning). Test compounds were diluted in 100% DMSO to 5 mM stock concentration and then further dilutions were made in H2O or 100% DMSO to desirable concentrations.
Each reaction consisted of 4 nM enzyme: Clk1 kinase domain, 400 nM TAMRA-AFRREWSPGKEAKK-NH2 (Genecust), 0.45 µM ATP (Sigma) and kinase buffer: 20 mM TRIS pH 8, 1 mM DTT, 0.4 mM MgCl2, 0.4 mM MnCl2, 0.01 V/V% Tween20 (all reagents from Sigma-Aldrich)
For each reaction, 4 or 6 µl containing TAMRA-peptide, ATP and kinase buffer were combined with 2 µl diluted compound in H2O or 0.02 µl compound in 100% DMSO. The kinase reaction was started by the addition of 2 µl diluted enzyme. The reaction was allowed to run for 1 hour at room temperature. The reaction was stopped by adding 15 µl IMAP beads (1:600 beads in progressive (80 % buffer A, 20% buffer B) 1x buffer). After an additional hour, fluorescent polarization (Ex: 550-10 nm, Em: 590-10 nm, Dich: 561 nm) was measured using an Analyst GT (Molecular Devices).

The subject of data set [5] is A549 human lung carcinoma cells. Nature of the data set: Cell-based EC50 determination, A549 cells (CellTiter-Glo cell viability). Conditions: A549, 24 h, read-out: A549 EC50 24h. How it is done:
A549 human lung carcinoma cells were cultured in RPMI 1640 medium (Sigma) supplemented with 10% fetal bovine serum (Sigma) and Antibiotic-Antimycotic (Sigma) in tissue culture flasks at 37°C in a humidified 5% CO2 atmosphere. Cells were routinely assayed for mycoplasma contamination.
Two thousand cells were plated in 384-well tissue culture plates, and treated after 24 hours with a 10-point dilution series of the compounds (1.5 nM-30 uM), using the vehicle, DMSO as control. Cells were incubated for 24 hours after which the relative cell density was determined by CellTiter-Glo Luminescent Cell Viability Assay (Promega). This method determines the number of metabolically active cells in the culture based on quantitation of the ATP present. The luminescent signal was measured with an Analyst GT multimode reader (Molecular Devices). […]

Data set [6] has as its system HKE3 human colon carcinoma cell line. Nature of the data set: In vitro growth inhibition of colon carcinoma cells, HKE3 (CellTiter-Glo). It is filed as cell-based. As to conditions: 72 hours incubation.
Data set [7] has as its system HepG2 hepatoblastomaderived cell line. Nature of the data set: In vitro growth inhibition, HepG2 (CellTiter-Glo). Conditions: Homo sapiens, 72 hours incubation. Type of data set: cell-based.
Data set [8] deals with HCT-116 human colon carcinoma cell line. Nature of the data set: In vitro growth inhibition of colon carcinoma cells, HCT-116 (CellTiter-Glo). Type of data set: cell-based. Conditions: 72 hours incubation, read-out: HCT116 EC50. A general note: In ATP-based viability assays light output follows the ATP content of the culture.

≈ marks a conversion by molar mass, not a printed value. Bounds are passed on as bounds.

T1 sequence (P49759 161-477 limits assumed): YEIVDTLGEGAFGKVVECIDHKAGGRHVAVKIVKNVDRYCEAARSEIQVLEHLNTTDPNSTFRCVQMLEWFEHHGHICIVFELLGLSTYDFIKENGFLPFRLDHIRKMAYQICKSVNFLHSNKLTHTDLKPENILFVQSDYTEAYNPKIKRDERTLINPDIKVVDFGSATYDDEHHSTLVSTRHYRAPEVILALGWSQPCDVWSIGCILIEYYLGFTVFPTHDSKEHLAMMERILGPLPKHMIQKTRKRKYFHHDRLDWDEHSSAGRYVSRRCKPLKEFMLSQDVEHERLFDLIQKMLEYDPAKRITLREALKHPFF
Sequence of human Akt1 kinase (P31749 whole entry): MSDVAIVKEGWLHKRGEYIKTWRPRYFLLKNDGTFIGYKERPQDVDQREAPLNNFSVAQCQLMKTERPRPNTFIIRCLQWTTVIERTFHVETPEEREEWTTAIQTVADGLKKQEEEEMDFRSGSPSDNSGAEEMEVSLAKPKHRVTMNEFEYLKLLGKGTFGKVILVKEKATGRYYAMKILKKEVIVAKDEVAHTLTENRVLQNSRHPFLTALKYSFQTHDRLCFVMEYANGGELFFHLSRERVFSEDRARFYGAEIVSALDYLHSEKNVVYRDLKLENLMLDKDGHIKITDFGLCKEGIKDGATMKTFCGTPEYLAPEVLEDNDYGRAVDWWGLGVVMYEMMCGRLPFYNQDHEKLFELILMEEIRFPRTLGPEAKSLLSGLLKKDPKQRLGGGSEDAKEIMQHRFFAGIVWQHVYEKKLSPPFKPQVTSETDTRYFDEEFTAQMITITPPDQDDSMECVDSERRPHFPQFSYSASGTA

Regarding `CC[C@H](NC(=O)c1ccc2c(c1)/C(=C(/Nc1ccc(CN3CCCCC3)cc1)c1ccccc1)C(=O)N2)c1ccccc1` [Compound 32, (3Z)-2-oxo-3-(phenyl{[4-(piperidin-1-ylmethyl)phenyl]amino}methylene)-N-[(1S)-1-phenylpropyl]indoline-5-carboxamide], the results for the IC50 in data set [1], in data set [2] and in data set [4] were greater than 12500 nM, 10100 nM and 100 nM, respectively. Besides, the solubility at 24 h is 110 to 120 µM (≈ 62.8 to 68.5 µg/mL) in data set [3] (pH 2, aqueous buffer) and less than 10 µM in data set [3] (pH 7.4, aqueous buffer). Also, the EC50 in data set [5] was determined as 6.38 µM.
In the case of `COc1cccc(CNC(=O)c2ccc3c(c2)/C(=C(/Nc2ccc(CN4CCN(C)CC4)cc2)c2ccccc2)C(=O)N3)c1` [Compound 40, (3Z)-N-(3-methoxybenzyl)-3-[({4-[(4-methylpiperazin-1-yl)methyl]phenyl}amino)(phenyl)methylene]-2-oxoindoline-5-carboxamide], the IC50 in data set [1] was 3400 nM; in data set [2] it was less than 10 nM; in data set [4], 10 nM. Besides, the concentration giving a half-maximal response (EC50) turned out to be 80 nM in data set [6], 10000 nM in data set [7], 110 nM in data set [8] and 14.6 µM in data set [5]. In addition, the solubility at 24 h in data set [3] (pH 2, aqueous buffer) is 110 to 120 µM (≈ 64.6 to 70.5 µg/mL); in data set [3] (pH 7.4, aqueous buffer), less than 10 µM.
For the molecule `COc1ccc(CNC(=O)c2ccc3c(c2)/C(=C(/Nc2ccc(CN4CCN(C)CC4)cc2)c2ccccc2)C(=O)N3)cc1OC` [Compound 39, (3Z)-N-(3,4-dimethoxybenzyl)-3-[({4-[(4-methylpiperazin-1-yl)methyl]phenyl}amino)(phenyl)methylene]-2-oxoindoline-5-carboxamide], the IC50 in data set [1] was 12300 nM; in data set [2], 100 nM; in data set [4], 10 nM. Moreover, the EC50 in data set [6] was found to be 2960 nM; in data set [7], 24200 nM; in data set [8], 3800 nM; in data set [5], 18.8 µM. Besides, the solubility at 24 h is 110 to 120 µM (≈ 68 to 74.1 µg/mL) in data set [3] (pH 2, aqueous buffer) and less than 10 µM in data set [3] (pH 7.4, aqueous buffer).
For `C[C@@H](NC(=O)c1ccc2c(c1)/C(=C(/Nc1ccc(CN3CCN(C)CC3)cc1)c1ccccc1)C(=O)N2)c1cccc(Cl)c1` [Compound 36, (3Z)-N-[(1R)-1-(3-chlorophenyl)ethyl]-3-[({4-[(4-methylpiperazin-1-yl)methyl]phenyl}amino)(phenyl)methylene]-2-oxoindoline-5-carboxamide], the values for the IC50 in data set [1], in data set [2] and in data set [4] were 330 nM, less than 10 nM and 20 nM, respectively. The EC50 is 20 nM in data set [6], 640 nM in data set [7], 20 nM in data set [8] and 1.77 µM in data set [5]. Moreover, the solubility at 24 h is 100 to 110 µM (≈ 60.6 to 66.7 µg/mL) in data set [3] (pH 2, aqueous buffer) and less than 10 µM in data set [3] (pH 7.4, aqueous buffer).
Regarding `CC[C@@H](NC(=O)c1ccc2c(c1)/C(=C(/Nc1ccc(CN3CCN(C)CC3)cc1)c1ccccc1)C(=O)N2)c1ccccc1` [Compound 37, (3Z)-3-[({4-[(4-methylpiperazin-1-yl)methyl]phenyl}amino)(phenyl)methylene]-2-oxo-N-[(1R)-1-phenylpropyl]indoline-5-carboxamide], the IC50 was 2050 nM in data set [1], less than 10 nM in data set [2] and 10 nM in data set [4]. The EC50 in data set [6] is less than 1.52 nM; in data set [7], 360 nM; in data set [8], 1 nM; in data set [5], 2.01 µM. For the same molecule, the solubility at 24 h in data set [3] (pH 2, aqueous buffer) was 110 to 120 µM (≈ 64.4 to 70.3 µg/mL); in data set [3] (pH 7.4, aqueous buffer), less than 10 µM.
Consider `C[C@@H](NC(=O)c1ccc2c(c1)/C(=C(/Nc1ccc(CN3CCN(C)CC3)cc1)c1ccccc1)C(=O)N2)c1ccccc1` [Compound 38, (3Z)-3-[({4-[(4-methylpiperazin-1-yl)methyl]phenyl}amino)(phenyl)methylene]-2-oxo-N-[(1R)-1-phenylethyl]indoline-5-carboxamide], for which the IC50 in data set [1] is 1830 nM; in data set [2] it was less than 10 nM; in data set [4], 10 nM. Besides, the EC50 was 10 nM in data set [6], 1120 nM in data set [7], 10 nM in data set [8] and 3.67 µM in data set [5]. The solubility at 24 h was 110 to 120 µM (≈ 62.9 to 68.6 µg/mL) in data set [3] (pH 2, aqueous buffer) and 10 to 20 µM (≈ 5.72 to 11.4 µg/mL) in data set [3] (pH 7.4, aqueous buffer).

By IC50 is commonly meant the concentration at which inhibition is half-maximal. As a reminder, the solubility is the concentration that dissolves in the medium under given conditions. By EC50 is commonly meant the concentration giving half of the maximal effect.

Source of the values: EP3056202A1, “BENZOPYRROLIDONE DERIVATIVES POSSESSING ANTIVIRAL AND ANTICANCER PROPERTIES” (Max-Planck-Gesellschaft zur Förderung der Wissenschaften …, priority 2015, dated 2016).
